Source: ChEMBL document CHEMBL4507319 (2021)

Experiments:
[1] = biological target: Beta-2 adrenergic receptor (Homo sapiens) (UniProt P07550); conditions: Compound concentration 10.0 uM
[2] = biological target: Beta-3 adrenergic receptor (Homo sapiens) (UniProt P13945); conditions: Compound concentration 10.0 uM
[3] = biological target: T1, Tyrosine-protein kinase receptor TYRO3 (Homo sapiens) (UniProt Q06418); assay: Rse(h) Eurofins kinase panel; conditions: Compound concentration 1.0 uM
T1 sequence (whole entry): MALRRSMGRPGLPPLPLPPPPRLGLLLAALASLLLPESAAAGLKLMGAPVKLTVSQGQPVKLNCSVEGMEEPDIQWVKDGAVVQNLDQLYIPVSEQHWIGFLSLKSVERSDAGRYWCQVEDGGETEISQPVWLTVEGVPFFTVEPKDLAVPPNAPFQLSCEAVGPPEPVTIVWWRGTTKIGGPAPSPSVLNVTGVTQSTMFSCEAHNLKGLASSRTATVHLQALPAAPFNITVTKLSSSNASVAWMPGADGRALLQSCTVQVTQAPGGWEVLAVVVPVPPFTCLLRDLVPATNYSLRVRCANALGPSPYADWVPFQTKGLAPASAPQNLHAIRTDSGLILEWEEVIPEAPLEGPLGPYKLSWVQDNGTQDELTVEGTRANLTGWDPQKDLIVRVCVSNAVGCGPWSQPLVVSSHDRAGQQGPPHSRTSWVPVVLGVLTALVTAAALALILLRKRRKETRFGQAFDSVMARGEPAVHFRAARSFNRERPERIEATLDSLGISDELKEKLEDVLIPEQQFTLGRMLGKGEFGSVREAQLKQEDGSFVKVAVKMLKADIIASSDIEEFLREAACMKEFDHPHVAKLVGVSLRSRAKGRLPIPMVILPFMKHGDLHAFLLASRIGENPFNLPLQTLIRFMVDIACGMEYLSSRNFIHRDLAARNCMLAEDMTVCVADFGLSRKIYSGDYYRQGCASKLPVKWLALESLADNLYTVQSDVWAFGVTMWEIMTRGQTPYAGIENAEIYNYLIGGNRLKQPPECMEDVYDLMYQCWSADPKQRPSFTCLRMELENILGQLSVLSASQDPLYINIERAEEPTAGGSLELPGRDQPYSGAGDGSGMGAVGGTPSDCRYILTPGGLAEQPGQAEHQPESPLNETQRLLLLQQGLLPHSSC

[4] = biological target: Serine/threonine-protein kinase PAK 2 (Homo sapiens) (UniProt Q13177); assay: PAK2(h) Eurofins kinase panel; conditions: Compound concentration 1.0 uM
Sequence of Serine/threonine-protein kinase PAK 2 (Homo sapiens) (Q13177 whole entry): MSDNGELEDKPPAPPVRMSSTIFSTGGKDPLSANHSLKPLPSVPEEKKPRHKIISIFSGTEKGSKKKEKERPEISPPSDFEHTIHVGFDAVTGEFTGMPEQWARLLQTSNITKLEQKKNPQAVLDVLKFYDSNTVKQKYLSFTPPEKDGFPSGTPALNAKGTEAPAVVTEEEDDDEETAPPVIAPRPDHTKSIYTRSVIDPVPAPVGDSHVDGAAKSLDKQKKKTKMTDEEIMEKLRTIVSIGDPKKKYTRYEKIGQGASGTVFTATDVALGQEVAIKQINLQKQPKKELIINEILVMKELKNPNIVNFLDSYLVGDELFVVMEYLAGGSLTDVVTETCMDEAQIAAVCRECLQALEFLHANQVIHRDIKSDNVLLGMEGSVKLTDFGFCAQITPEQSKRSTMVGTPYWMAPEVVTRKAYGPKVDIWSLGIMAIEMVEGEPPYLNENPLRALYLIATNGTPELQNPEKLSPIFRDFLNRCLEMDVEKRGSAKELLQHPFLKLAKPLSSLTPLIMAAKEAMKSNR

[5] = biological target: T2, Tyrosine-protein kinase TXK (Homo sapiens) (UniProt P42681); assay: Txk(h) Eurofins kinase panel; conditions: Compound concentration 1.0 uM
T2 sequence (whole entry): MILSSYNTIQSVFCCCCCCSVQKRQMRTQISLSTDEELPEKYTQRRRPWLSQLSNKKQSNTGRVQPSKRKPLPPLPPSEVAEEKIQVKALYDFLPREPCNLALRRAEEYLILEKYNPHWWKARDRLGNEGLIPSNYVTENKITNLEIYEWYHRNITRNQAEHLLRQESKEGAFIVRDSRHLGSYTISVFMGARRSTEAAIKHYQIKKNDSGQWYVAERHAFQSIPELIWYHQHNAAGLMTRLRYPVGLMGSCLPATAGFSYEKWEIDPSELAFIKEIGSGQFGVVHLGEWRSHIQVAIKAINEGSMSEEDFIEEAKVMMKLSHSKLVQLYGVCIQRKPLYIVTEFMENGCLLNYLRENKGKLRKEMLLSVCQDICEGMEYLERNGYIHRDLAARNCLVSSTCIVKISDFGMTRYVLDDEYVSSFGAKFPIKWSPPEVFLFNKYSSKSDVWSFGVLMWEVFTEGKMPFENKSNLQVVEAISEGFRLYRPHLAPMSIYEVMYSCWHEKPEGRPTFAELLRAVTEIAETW

[6] = biological target: Cyclin-dependent kinase 5/CDK5 activator 1 (Homo sapiens) (UniProt Q00535+Q15078); assay: CDK5/p25(h) Eurofins kinase panel; format: protein-complex assay; conditions: Compound concentration 1.0 uM
Sequence of Cyclin-dependent kinase 5/CDK5 activator 1 (Homo sapiens) (Q00535 whole entry): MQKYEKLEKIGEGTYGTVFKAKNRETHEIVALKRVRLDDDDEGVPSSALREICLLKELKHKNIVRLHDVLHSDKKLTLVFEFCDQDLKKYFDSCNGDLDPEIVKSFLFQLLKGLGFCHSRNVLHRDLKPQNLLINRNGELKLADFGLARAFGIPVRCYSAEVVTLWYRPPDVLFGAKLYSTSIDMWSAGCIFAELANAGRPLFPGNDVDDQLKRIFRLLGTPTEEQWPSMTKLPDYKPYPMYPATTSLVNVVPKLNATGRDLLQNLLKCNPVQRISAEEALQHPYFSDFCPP
Sequence of Cyclin-dependent kinase 5/CDK5 activator 1 (Homo sapiens) (Q15078 99-307 partner limits assumed): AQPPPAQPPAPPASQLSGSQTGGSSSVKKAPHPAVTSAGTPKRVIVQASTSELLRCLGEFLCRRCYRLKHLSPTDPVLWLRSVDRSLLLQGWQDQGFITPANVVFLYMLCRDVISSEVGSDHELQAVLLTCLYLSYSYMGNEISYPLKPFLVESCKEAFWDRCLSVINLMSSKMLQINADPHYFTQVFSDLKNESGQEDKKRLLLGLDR

SNU-16 = assay: SNU-16 cell line Proliferation assay; format: functional, Homo sapiens; conditions: time 3 day
[7] = biological target: T3, Serine/threonine-protein kinase DCLK3 (Homo sapiens) (UniProt Q9C098); assay: DCAMKL3(h) Eurofins kinase panel; conditions: Compound concentration 1.0 uM
T3 sequence (whole entry): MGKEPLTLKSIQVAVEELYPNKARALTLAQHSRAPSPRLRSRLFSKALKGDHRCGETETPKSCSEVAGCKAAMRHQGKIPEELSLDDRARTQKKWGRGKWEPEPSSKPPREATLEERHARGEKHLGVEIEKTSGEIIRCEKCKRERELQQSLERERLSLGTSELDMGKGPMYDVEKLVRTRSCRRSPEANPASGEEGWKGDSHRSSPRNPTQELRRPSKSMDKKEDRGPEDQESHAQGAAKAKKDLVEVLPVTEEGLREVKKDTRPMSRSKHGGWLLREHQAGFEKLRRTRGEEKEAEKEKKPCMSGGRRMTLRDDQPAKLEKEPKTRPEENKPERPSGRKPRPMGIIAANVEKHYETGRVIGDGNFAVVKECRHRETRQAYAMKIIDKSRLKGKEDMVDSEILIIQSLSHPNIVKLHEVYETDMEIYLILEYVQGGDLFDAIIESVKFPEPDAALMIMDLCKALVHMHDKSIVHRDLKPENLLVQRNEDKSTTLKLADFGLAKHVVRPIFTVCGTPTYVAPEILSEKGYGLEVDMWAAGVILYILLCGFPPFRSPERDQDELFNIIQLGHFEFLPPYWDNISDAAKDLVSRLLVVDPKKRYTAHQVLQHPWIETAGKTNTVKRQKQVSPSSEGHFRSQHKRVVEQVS

Sequence of Beta-3 adrenergic receptor (Homo sapiens) (P13945 whole entry, looked up): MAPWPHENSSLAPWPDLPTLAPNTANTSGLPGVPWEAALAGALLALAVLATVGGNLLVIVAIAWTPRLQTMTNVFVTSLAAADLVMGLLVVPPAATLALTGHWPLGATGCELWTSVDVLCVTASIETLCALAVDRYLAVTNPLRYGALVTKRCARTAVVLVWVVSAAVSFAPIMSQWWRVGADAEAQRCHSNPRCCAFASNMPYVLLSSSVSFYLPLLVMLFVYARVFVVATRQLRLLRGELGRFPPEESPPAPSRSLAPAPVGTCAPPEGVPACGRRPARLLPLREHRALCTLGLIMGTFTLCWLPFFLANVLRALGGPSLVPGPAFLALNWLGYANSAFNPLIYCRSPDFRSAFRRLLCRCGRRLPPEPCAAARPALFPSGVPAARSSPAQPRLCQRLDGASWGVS
Sequence of Beta-2 adrenergic receptor (Homo sapiens) (P07550 whole entry, looked up): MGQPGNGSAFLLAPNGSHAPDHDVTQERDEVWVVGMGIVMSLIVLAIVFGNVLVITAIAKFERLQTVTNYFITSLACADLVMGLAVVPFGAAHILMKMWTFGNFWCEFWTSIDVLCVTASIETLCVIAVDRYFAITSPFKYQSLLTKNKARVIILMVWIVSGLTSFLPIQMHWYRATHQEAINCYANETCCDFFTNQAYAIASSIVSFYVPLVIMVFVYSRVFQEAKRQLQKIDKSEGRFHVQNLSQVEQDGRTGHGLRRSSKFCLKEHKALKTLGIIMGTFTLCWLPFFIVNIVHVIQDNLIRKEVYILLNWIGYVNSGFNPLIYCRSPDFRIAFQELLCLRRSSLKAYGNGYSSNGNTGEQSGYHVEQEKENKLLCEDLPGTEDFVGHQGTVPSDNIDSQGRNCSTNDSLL

Compound	inhibition [1]	inhibition [2]	% residual kinase activity [3]	% residual kinase activity [4]	% residual kinase activity [5]	% residual kinase activity [6]	Cell Proliferation IC50 (SNU-16)	% residual kinase activity [7]
CC1=C(C#N)C(c2ccc3c(c2)c(NC(=O)c2ccccc2C)nn3C)C(C#N)=C(C)N1 [BAY-974]	-7.25%	-3.33%						
CCc1ccccc1C(=O)Nc1n[nH]c2c(C)c(F)c(C3C(C#N)=C(C)N(C)C(C)=C3C#N)cc12 [BAY-3827]			105%	105%	111%	98%	12 µM	100%
